Molecules are shown by their SMILES. Calls of active or inactive are those of the source. No stated cut-off is given here; in the data, actives have a measured IC50 and inactives only a lower limit.

In the assay the target is Envelope glycoprotein gp160 (Human immunodeficiency virus 1, UniProt Q6QLK5). Nature of the assay: cell-free HIV fusion peptide-binding blockers – biochemical, uHTS, fluorescence dequenching, […] (AID 1986).
Envelope glycoprotein gp160, sequence (Q6QLK5 whole entry, the tested form may be a part): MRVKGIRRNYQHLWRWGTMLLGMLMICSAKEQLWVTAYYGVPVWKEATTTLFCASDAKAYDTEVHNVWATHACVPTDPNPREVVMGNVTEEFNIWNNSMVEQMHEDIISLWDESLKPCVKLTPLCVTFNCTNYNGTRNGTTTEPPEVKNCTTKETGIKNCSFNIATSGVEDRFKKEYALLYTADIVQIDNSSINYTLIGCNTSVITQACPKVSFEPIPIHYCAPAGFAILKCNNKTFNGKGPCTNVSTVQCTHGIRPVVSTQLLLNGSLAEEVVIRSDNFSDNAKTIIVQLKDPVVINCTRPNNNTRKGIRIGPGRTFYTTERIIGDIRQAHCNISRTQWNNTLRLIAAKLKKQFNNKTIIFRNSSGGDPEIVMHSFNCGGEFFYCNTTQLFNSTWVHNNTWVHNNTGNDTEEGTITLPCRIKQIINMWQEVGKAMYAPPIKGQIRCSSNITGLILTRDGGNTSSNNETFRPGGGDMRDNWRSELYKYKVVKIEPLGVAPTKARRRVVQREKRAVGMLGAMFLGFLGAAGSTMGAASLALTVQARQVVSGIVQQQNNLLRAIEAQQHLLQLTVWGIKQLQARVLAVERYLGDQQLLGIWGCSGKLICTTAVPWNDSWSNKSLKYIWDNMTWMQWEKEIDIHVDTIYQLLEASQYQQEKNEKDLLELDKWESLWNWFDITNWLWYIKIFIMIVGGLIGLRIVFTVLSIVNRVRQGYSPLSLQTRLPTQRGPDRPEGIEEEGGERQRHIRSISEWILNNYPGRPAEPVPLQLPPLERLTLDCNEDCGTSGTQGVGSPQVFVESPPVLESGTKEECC
As a reminder, the IC50 is the concentration at which inhibition is half-maximal. In the case of `O=C(O)c1[nH]c2ccccc2c1C(c1ccccc1)c1c(C(=O)O)[nH]c2ccccc12`, the IC50 was 14 µM (active).
In the case of `Cc1sc(-n2c(C)cc(/C=C3\SC(=S)NC3=O)c2C)c(C#N)c1C`, the IC50 is 24.1 µM (active).
Regarding `O=C(O)C1Nc2ccc(Br)cc2C2C=CCC12` (centres undefined), the IC50 was 10.9 µM (active).
Take `CCc1ccc(S(=O)(=O)/N=C2\C=C(NS(=O)(=O)c3ccccc3)C(=O)c3ccccc32)cc1`: the IC50 is 19.7 µM (active).

Values taken from ChEMBL document CHEMBL1201862, “PubChem BioAssay data set” (2004).
